Tests used:
[1] = Stability in simulated intestinal fluid (SIF) by UPLC; format: in vitro ADME; details: SIF pH 6.89, 37° C., within 3 hours
Protocol: The stability of montbretin A in both simulated intestinal fluid (SIF) and simulated gastric fluid (SGF) were analyzed via ultra performance liquid chromatography (UPLC). The instrument consisted of a Waters® Acquity™ UPLC system equipped with a PDA and a TQ detector in tandem. The 2 μL sample injection volume was passed through a Waters® Acquity™ BEH C18 column (1.7 μm, 2.1×100 mm), with mobile phases A and B consisting of water with 0.1% formic acid and acetonitrile with 0.1% formic acid, respectively. The mobile phases were delivered at a programmed linear gradient at a column temperature of 35° C. Linearity was evaluated using a set of montbretin A calibration standards with concentrations ranging from 10 to 100 μg/mL in water. […]
To examine the gastrointestinal fluid activity, 0.5 mg/ml solutions of oleamide (positive control) in SGF or SIF were prepared by diluting a 100 μL aliquot of oleamide (50 mg/mL in 2-propanol) to 10 mL with either SGF or SIF and incubated in a 37° C. water bath for 1 or 3 hours, respectively. At time points of 1 or 3 hours, the sample was removed from the water bath and a 100 μL aliquot of the resulting solution was diluted to 1 mL with de-ionized water in a glass UPLC glass sample vial and analyzed by UPLC for oleamide content. […]

[2] = target: T1, β-glucosidase (Agrobacterium sp.) (Agrobacterium sp., UniProt P12614); assay: Glycosidase specificity: β-glucosidase; format: biochemical
T1 sequence (P12614 1-459): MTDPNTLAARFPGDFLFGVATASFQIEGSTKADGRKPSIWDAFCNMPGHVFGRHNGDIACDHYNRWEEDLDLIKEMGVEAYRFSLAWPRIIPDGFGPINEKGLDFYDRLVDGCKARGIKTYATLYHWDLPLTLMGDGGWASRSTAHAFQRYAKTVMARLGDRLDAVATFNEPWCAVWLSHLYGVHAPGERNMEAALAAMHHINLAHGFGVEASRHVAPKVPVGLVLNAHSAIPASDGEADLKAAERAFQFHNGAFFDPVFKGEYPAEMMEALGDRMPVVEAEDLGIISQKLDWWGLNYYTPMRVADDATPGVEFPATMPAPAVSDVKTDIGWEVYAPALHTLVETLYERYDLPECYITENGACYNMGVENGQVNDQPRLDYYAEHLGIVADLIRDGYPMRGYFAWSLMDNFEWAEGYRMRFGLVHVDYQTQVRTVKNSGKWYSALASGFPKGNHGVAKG
From the text: The subsequent residue of montbretin A is also a β-linked glucose residue, however this residue bears a large 6-O-caffeic ester moiety and would therefore not be processed by Abg. […] Thus, the terminal glucosyl residue on the trisaccharide moiety is not required for α-amylase activity.

[3] = test system: β-hexosaminidase (Jack Bean); assay: Glycosidase specificity: β-hexosaminidase; format: biochemical; details: at 0.1 μM Montbretin A
α-amylase (HPA) = target: T2, α-amylase (HPA) (Homo sapiens, UniProt P04746); assay: Glycosidase specificity: α-amylase; format: biochemical; details: at 0.1 μM Montbretin A; read-out: RA (%), Residual Enzyme Activity
T2 sequence (P04746 16-511): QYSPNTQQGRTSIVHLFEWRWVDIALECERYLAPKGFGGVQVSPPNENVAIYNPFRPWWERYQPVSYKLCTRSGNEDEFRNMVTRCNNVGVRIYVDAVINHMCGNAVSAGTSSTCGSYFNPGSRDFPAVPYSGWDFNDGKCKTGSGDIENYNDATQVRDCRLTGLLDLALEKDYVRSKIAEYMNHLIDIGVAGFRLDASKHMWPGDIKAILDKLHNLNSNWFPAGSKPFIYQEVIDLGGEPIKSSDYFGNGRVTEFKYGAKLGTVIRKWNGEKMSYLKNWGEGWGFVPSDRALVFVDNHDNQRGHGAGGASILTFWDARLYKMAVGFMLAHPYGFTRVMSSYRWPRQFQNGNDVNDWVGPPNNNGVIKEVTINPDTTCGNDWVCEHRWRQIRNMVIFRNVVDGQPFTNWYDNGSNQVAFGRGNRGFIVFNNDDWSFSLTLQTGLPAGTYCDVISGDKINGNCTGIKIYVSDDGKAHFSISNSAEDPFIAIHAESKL

For `CC1O[C@@H](O[C@@H]2CO[C@@H](Oc3c(O)cc(-c4oc5cc(O)cc(O)c5c(=O)c4O[C@@H]4OC(C)[C@H](O)[C@H](O)C4O[C@@H]4OC(COC(=O)/C=C/c5ccc(O)c(O)c5)[C@@H](O)[C@@H](O)C4O[C@@H]4OC(CO)[C@@H](O)[C@@H](O)C4O)cc3O)C(O)[C@@H]2O)C(O)[C@@H](O)[C@H]1O` (stereo partly drawn) [Montbretin A, montbretin A], the “degradation in SIF” value [1] was “no significant degradation”, the remaining activity at 0.1 µM ([2]; at 0.1 μM Montbretin A, read-out: RA (%), Residual Enzyme Activity) was 100% and the “inhibition of β-glucosidase from Agrobacterium (Abg)” value ([2]; extent of inhibition decreasing with time) was “time dependent inhibition”. For the same compound, the “inhibition of Abg after pre-incubation” value ([2]; pre-incubation with Abg prior to addition of assay substrate) was “no inhibition”, the “RA (%), Residual Enzyme Activity” value [3] was 99% and the remaining activity at 0.1 µM (α-amylase (HPA)) was 11%.

Reference: patent publication US8431541B2, “Alpha-amylase inhibitors: the montbretins and uses thereof” (The University of British Columbia, priority 2007, dated 2013)
